Assay results reported in patent US20210161807A1, “IMPLANTABLE DEVICE FOR LOCALIZED DRUG DELIVERY, USES AND MANUFACTURING METHOD THEREOF” (FONDAZIONE ISTITUTO ITALIANO DI TECNOLOGIA, priority 2018, published 2021).

Assay: Release of docetaxel from the polymer matrix of the device
Format: physicochemical
Conditions: Docetaxel incorporated in the polymer matrix in the form of powder
From the text: The selected active ingredient may be appropriately incorporated into the polymer matrix in a form suitable for obtaining a prolonged release of the main active ingredient itself, without affecting the pharmacological activity thereof. For example, the Docetaxel incorporated in the polymer matrix in the form of powder is released up to 60 days after implantation. Longer release times may be easily achieved by incorporating the active ingredient, instead of in the form of powder, in its co-crystalline form. This solid form reduces the rate of dissolution, which is a necessary prerequisite for subsequent diffusion into the space surrounding the implanted device, […].
To study the release profile, the μMESH device and the FLAT counterpart thereof were incubated in 1 ml of phosphate buffered saline (PBS), to mimic and maximize the volume of liquid to which the devices may be exposed in a local application. At different times, the solution was centrifuged at 5000 rpm for 10 min and the supernatant was analyzed using the protocol described above. The results are expressed as a percentage of the cumulative release over time of three samples for each type of device.

release time of active ingredient after implantation: up to 60 days
SMILES: CC(=O)O[C@@]12CO[C@@H]1C[C@H](O)[C@@]1(C)C(=O)[C@H](O)C3=C(C)[C@@H](OC(=O)[C@H](O)[C@@H](NC(=O)OC(C)(C)C)c4ccccc4)C[C@@](O)([C@@H](OC(=O)c4ccccc4)[C@H]21)C3(C)C [Docetaxel]
